Source: patent US11439641B2, “Pyrimidine JAK inhibitors for the treatment of skin diseases” (THERAVANCE BIOPHARMA R&D IP, LLC, priority 2019, dated 2022)

Legend:
JAK1 = JAK1 (Homo sapiens (Human), UniProt P23458); assay: Biochemical JAK and Tyk2 Kinase Assays (LanthaScreen), JAK1; conditions: 25 μM ATP (Km); pIC50 converted to pKi by Cheng-Prusoff
Method: (§1) Assay 1: Biochemical JAK and Tyk2 Kinase Assays
(§2) A panel of four LanthaScreen JAK biochemical assays (JAK1, 2, 3 and Tyk2) were carried in a common kinase reaction buffer (50 mM HEPES, pH 7.5, 0.01% Brij-35, 10 mM MgCl2, and 1 mM EGTA). Recombinant GST-tagged JAK enzymes and a GFP-tagged STAT1 peptide substrate were obtained from Life Technologies.
(§3) Serially or discretely diluted compounds were pre-incubated with each of the four JAK enzymes and the substrate in white 384-well microplates (Corning) at ambient temperature for 1 h. ATP was subsequently added to initiate the kinase reactions in 10 μL total volume, with 1% DMSO. The final enzyme concentrations for JAK1, 2, 3 and Tyk2 are 4.2 nM, 0.1 nM, 1 nM, and 0.25 nM respectively; the corresponding Km ATP concentrations used are 25 μM, 3 μM, 1.6 μM, and 10 μM; while the substrate concentration is 200 nM for all four assays. Kinase reactions were allowed to proceed for 1 hour at ambient temperature before a 10 μL preparation of EDTA (10 mM final concentration) and Tb-anti-pSTAT1 (pTyr701) antibody (Life Technologies, 2 nM final concentration) in TR-FRET dilution buffer (Life Technologies) was added. The plates were allowed to incubate at ambient temperature for 1 h before being read on the EnVision reader (Perkin Elmer). Emission ratio signals (520 nm/495 nm) were recorded and utilized to calculate the percent inhibition values based on DMSO and background controls.
(§4) For dose-response analysis, percent inhibition data were plotted vs. compound concentrations, and IC50 values were determined from a 4-parameter robust fit model with the Prism software (GraphPad Software). Results were expressed as pIC50 (negative logarithm of IC50) and subsequently converted to pKi (negative logarithm of dissociation constant, Ki) using the Cheng-Prusoff equation.

JAK3 = JAK3 (Homo sapiens (Human), UniProt P52333); assay: Biochemical JAK and Tyk2 Kinase Assays (LanthaScreen), JAK3; conditions: 1.6 μM ATP (Km); pIC50 converted to pKi by Cheng-Prusoff
Chain of JAK3 (P52333 whole entry): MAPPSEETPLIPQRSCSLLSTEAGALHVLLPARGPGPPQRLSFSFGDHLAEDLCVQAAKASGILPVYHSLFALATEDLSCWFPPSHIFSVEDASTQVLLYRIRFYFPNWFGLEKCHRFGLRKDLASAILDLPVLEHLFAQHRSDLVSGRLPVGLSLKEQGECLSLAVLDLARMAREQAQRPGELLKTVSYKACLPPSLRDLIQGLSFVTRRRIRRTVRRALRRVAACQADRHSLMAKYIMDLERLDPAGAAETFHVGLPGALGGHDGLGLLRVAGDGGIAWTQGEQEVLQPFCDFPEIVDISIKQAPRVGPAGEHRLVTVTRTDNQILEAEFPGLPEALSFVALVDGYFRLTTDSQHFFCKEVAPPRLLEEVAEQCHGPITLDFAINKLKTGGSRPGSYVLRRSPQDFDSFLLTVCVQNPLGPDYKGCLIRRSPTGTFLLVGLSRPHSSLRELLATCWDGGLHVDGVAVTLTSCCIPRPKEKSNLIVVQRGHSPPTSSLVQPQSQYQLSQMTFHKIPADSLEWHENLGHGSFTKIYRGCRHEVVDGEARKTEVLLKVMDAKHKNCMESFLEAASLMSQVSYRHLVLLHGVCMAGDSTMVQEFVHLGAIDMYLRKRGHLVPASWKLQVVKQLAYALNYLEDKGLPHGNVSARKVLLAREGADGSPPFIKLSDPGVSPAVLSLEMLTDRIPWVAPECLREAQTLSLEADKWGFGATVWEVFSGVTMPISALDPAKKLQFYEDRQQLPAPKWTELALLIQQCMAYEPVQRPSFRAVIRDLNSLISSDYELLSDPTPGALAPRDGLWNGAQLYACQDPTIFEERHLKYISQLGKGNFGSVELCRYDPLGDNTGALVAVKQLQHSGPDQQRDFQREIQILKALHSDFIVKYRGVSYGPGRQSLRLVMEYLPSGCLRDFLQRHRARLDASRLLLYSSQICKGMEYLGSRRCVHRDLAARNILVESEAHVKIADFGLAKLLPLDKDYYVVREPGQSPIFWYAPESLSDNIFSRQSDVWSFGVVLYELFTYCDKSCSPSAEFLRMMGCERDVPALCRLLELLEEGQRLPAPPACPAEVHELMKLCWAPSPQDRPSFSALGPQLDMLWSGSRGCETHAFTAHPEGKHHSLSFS
Method: as §1, §2, §3, §4

[1] = system: IL-2 stimulated pSTAT5 in Tall-1 T cells; assay: Inhibition of IL-2 Stimulated pSTAT5 in Tall-1 T Cells; format: cell-based; conditions: Tall-1 human T cell line, IL-2 300 ng/mL, AlphaLisa
Method: Assay 2: Inhibition of IL-2 Stimulated pSTAT5 in Tall-1 T Cells
The potency of test compounds for inhibition of interleukin-2 (IL-2) stimulated STATS phosphorylation was measured in the Tall-1 human T cell line (DSMZ) using AlphaLisa. Because IL-2 signals through JAK1/3, this assay provides a measure of JAK1/3 cellular potency.
Phosphorylated STATS was measured via the AlphaLISA SureFire Ultra pSTAT5 (Tyr694/699) kit (PerkinElmer). Human T cells from the Tall-1 cell line were cultured in a 37° C., 5% CO2 humidified incubator in RPMI (Life Technologies) supplemented with 15% Heat Inactivated Fetal Bovine Serum (FBS, Life Technologies), 2 mM Glutamax (Life Technologies), 25 mM HEPES (Life Technologies) and 1× Pen/Strep (Life Technologies). Compounds were serially diluted in DMSO and dispensed acoustically to empty wells. Assay media (phenol red-free DMEM (Life Technologies) supplemented with 10% FBS (ATCC)) was dispensed (4 μL/well) and plates shaken at 900 rpm for 10 mins. Cells were seeded at 45,000 cells/well in assay media (4 μL/well), and incubated at 37° C., 5% CO2 for 1 hour, followed by the addition of IL-2 (R&D Systems; final concentration 300 ng/mL) in pre-warmed assay media (4 μL) for 30 minutes. After cytokine stimulation, cells were lysed with 6 ul of 3× AlphaLisa Lysis Buffer (PerkinElmer) containing 1× PhosStop and Complete tablets (Roche). The lysate was shaken at 900 rpm for 10 minutes at room temperature (RT). Phosphorylated STATS was measured via the pSTAT5 AlphaLisa kit (PerkinElmer). Freshly prepared acceptor bead mixture was dispensed onto lysate (51) under green filtered <100 lux light. Plates were shaken at 900 rpm for 2 mins, briefly spun down, and incubated for 2 hrs at RT in the dark. Donor beads were dispensed (5 μL) under green filtered <100 lux light. Plates were shaken at 900 rpm for 2 minutes, briefly spun down, and incubated overnight at RT in the dark. Luminescence was measured with excitation at 689 nm and emission at 570 nm using an EnVision plate r reader (PerkinElmer) under green filtered <100 lux light.
To determine the inhibitory potency of test compounds in response to IL-2, the average emission intensity of beads bound to pSTAT5 was measured in a human T cell line. IC50 values were determined from analysis of the inhibition curves of signal intensity versus compound concentration. Data are expressed as pIC50 (negative decadic logarithm IC50) values (mean±standard deviation).

Aqueous Solubility Assay = conditions: PBS buffer pH 7.4; maximum upper limit 1,000 μM
[2] = Solubility Assay in Organic Excipients; conditions: maximum upper limit 20,000 μM; for Solubility in MCT (mg/mL): medium chain triglycerides (MCT)

Chain of JAK1 (P23458 whole entry): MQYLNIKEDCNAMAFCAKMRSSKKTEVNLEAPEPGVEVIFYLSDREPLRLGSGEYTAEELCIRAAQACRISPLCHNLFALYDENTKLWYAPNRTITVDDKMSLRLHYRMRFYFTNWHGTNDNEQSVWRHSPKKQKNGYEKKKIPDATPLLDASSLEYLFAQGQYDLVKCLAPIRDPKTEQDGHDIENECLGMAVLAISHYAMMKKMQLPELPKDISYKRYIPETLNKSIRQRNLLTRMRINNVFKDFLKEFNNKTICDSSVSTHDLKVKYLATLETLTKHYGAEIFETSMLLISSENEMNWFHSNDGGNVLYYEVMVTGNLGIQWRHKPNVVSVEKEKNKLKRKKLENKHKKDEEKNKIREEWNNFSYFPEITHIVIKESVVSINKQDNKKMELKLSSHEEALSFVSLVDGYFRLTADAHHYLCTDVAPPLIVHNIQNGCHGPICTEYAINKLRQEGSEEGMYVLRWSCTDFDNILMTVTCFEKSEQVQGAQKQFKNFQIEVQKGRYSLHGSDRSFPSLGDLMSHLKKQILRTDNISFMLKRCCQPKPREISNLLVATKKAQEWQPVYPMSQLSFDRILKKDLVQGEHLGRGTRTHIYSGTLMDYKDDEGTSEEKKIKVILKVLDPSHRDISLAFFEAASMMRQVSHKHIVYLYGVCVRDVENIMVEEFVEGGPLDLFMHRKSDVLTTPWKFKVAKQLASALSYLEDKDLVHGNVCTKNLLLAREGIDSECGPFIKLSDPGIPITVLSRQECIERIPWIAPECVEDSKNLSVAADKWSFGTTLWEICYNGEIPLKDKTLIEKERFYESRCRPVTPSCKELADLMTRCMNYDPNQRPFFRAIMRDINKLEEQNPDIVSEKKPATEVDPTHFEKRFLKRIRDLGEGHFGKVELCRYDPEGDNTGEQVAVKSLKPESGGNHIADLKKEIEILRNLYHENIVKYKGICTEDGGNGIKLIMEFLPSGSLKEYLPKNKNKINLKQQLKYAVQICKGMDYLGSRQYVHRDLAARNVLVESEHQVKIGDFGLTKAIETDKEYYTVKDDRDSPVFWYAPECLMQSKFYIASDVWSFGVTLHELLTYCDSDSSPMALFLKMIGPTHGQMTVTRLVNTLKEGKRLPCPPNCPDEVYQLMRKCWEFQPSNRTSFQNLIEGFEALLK

## CCS(=O)(=O)N1[C@@H]2CCC[C@H]1C[C@H](N(C)c1nc(Nc3cc(C)[nH]n3)cc(C3CCOC(C)(C)C3)n1)C2 (stereo partly drawn) [Compound 2, 6-(2,2-dimethyltetrahydro-2H-pyran-4-yl)-N2-((1R,3s,5S)-9-(ethylsulfonyl)-9-azabicyclo[3.3.1]nonan-3-yl)-N2-methyl-N4-(5-methyl-1H-pyrazol-3-yl)pyrimidine-2,4-diamine]
JAK1
  JAK 1 (pKi): B (B represents a pKi value between 9 and 10 (Ki between 1 nM and 0.1 nM))
JAK3
  JAK 3 (pKi): B (B represents a pKi value between 9 and 10 (Ki between 1 nM and 0.1 nM))
[1]
  Tall-1 IL2 pSTAT5 (pIC50): A (A represents a pIC50 value ≥8.0)
Aqueous Solubility Assay
  Solubility at PH 7.4 (μmol): C (C represents a value between 50 and 250)
[2]
  Solubility in PEG400 (mg/mL): C (C represents a value below 5)
  Solubility in Diisopropyl adipate (mg/mL): C (C represents a value below 5)
  Solubility in MCT (mg/mL): C (C represents a value below 5)
  Solubility in Propylene glycol (mg/mL): C (C represents a value below 5)

## COC(=O)N1[C@@H]2CCC[C@H]1C[C@H](N(C)c1nc(Nc3cc(C)[nH]n3)cc(C3CCOCC3)n1)C2 [Compound 3, methyl (1R,3s,5S)-3-(methyl(4-((5-methyl-1H-pyrazol-3-yl)amino)-6-(tetrahydro-2H-pyran-4-yl)pyrimidin-2-yl)amino)-9-azabicyclo[3.3.1]nonane-9-carboxylate]
JAK1
  JAK 1 (pKi): B (B represents a pKi value between 9 and 10 (Ki between 1 nM and 0.1 nM))
JAK3
  JAK 3 (pKi): B (B represents a pKi value between 9 and 10 (Ki between 1 nM and 0.1 nM))
[1]
  Tall-1 IL2 pSTAT5 (pIC50): A (A represents a pIC50 value ≥8.0)
Aqueous Solubility Assay
  Solubility at PH 7.4 (μmol): E (E represents a value below 10)
[2]
  Solubility in PEG400 (mg/mL): C (C represents a value below 5)
  Solubility in Diisopropyl adipate (mg/mL): C (C represents a value below 5)
  Solubility in MCT (mg/mL): C (C represents a value below 5)
  Solubility in Propylene glycol (mg/mL): C (C represents a value below 5)

## COC(=O)N1[C@@H]2CCC[C@H]1C[C@H](N(C)c1nc(Nc3cc(C)[nH]n3)cc(C3CCOC3)n1)C2 (stereo partly drawn) [Compound 6, Methyl (1R,3s,5S)-3-(methyl(4-((5-methyl-1H-pyrazol-3-yl)amino)-6-(tetrahydrofuran-3-yl)pyrimidin-2-yl)amino)-9-azabicyclo[3.3.1]nonane-9-carboxylate]
JAK1
  JAK 1 (pKi): A (A represents a pKi value ≥10 (Ki≤0.1 nM))
JAK3
  JAK 3 (pKi): C (C represents a pKi value between 8 and 9 (Ki between 10 nM and 1 nM))
[1]
  Tall-1 IL2 pSTAT5 (pIC50): A (A represents a pIC50 value ≥8.0)
Aqueous Solubility Assay
  Solubility at PH 7.4 (μmol): D (D represents a value between 10 and 50)
[2]
  Solubility in PEG400 (mg/mL): C (C represents a value below 5)
  Solubility in Diisopropyl adipate (mg/mL): C (C represents a value below 5)
  Solubility in MCT (mg/mL): C (C represents a value below 5)
  Solubility in Propylene glycol (mg/mL): C (C represents a value below 5)

## CCC(=O)N1[C@@H]2CCC[C@H]1C[C@H](N(C)c1nc(Nc3cc(C)[nH]n3)cc(O[C@@H]3CCOC3)n1)C2 [Compound 17, 1-((1R,3s,5S)-3-(methyl(4-((5-methyl-1H-pyrazol-3-yl)amino)-6-(((R)-tetrahydrofuran-3-yl)oxy)pyrimidin-2-yl)amino)-9-azabicyclo[3.3.1]nonan-9-yl)propan-1-one]
JAK1
  JAK 1 (pKi): B (B represents a pKi value between 9 and 10 (Ki between 1 nM and 0.1 nM))
JAK3
  JAK 3 (pKi): C (C represents a pKi value between 8 and 9 (Ki between 10 nM and 1 nM))
[1]
  Tall-1 IL2 pSTAT5 (pIC50): A (A represents a pIC50 value ≥8.0)
Aqueous Solubility Assay
  Solubility at PH 7.4 (μmol): D (D represents a value between 10 and 50)
[2]
  Solubility in PEG400 (mg/mL): B (B represents a value between 5 and 10)
  Solubility in Diisopropyl adipate (mg/mL): A (A represents a value above 10)
  Solubility in MCT (mg/mL): C (C represents a value below 5)
  Solubility in Propylene glycol (mg/mL): A (A represents a value above 10)

## CCS(=O)(=O)N1[C@@H]2CCC[C@H]1C[C@H](N(C)c1nc(Nc3cc(C)[nH]n3)cc(OC3COC3)n1)C2 [Compound 34, N^2-((1R,3s,5S)-9-(ethylsulfonyl)-9-azabicyclo[3.3.1]nonan-3-yl)-N2-methyl-N4-(5-methyl-1H-pyrazol-3-yl)-6-(oxetan-3-yloxy)pyrimidine-2,4-diamine]
JAK1
  JAK 1 (pKi): A (A represents a pKi value ≥10 (Ki≤0.1 nM))
JAK3
  JAK 3 (pKi): B (B represents a pKi value between 9 and 10 (Ki between 1 nM and 0.1 nM))
[1]
  Tall-1 IL2 pSTAT5 (pIC50): A (A represents a pIC50 value ≥8.0)
Aqueous Solubility Assay
  Solubility at PH 7.4 (μmol): E (E represents a value below 10)
[2]
  Solubility in PEG400 (mg/mL): C (C represents a value below 5)
  Solubility in Diisopropyl adipate (mg/mL): C (C represents a value below 5)
  Solubility in MCT (mg/mL): C (C represents a value below 5)
  Solubility in Propylene glycol (mg/mL): C (C represents a value below 5)
